Experimental data published in ChEMBL document CHEMBL3272341, “Cellular pharmocodynamics of several anthrocycline antibiotics” (J Med Chem, 1976).

Key:
L1210 [1] = test: Inhibition of RNA synthesis in mouse L1210 cells assessed as inhibition of [14C]-uridine incorporation measured per 10^6 cells […] pretreated for 1 hr followed by radiotracer addition measured after 1 hr by scintillation spectrometric analysis relative to control; assay type: functional
L1210 [2] = test: Inhibition of DNA synthesis in mouse L1210 cells assessed as inhibition of [3H]-thymidine incorporation measured per 10^6 cells […] pretreated for 1 hr followed by radiotracer addition measured after 1 hr by scintillation spectrometric analysis relative to control; assay type: functional
L1210 [3] = test: Inhibition of DNA synthesis in mouse L1210 cells assessed as inhibition of [3H]-thymidine incorporation measured per 10^6 cells at 3 uM pretreated for 1 hr followed by radiotracer addition measured after 1 hr by scintillation spectrometric analysis relative to control; assay type: functional
L1210 [4] = test: Inhibition of RNA synthesis in mouse L1210 cells assessed as inhibition of [14C]-uridine incorporation measured per 10^6 cells at 3 uM pretreated for 1 hr followed by radiotracer addition measured after 1 hr by scintillation spectrometric analysis relative to control; assay type: functional
L1210 [5] = test: Inhibition of RNA synthesis in mouse L1210 cells assessed as inhibition of [14C]-uridine incorporation measured per 10^6 cells at 5 uM pretreated for 1 hr followed by radiotracer addition measured after 1 hr by scintillation spectrometric analysis relative to control; assay type: functional
L1210 [6] = test: Ratio of inhibition of [3H]-thymidine incorporation into DNA in mouse L1210 cells to cellular uptake in mouse L1210 cells
L1210 [7] = test: Inhibition of DNA synthesis in mouse L1210 cells assessed as inhibition of [3H]-thymidine incorporation measured per 10^6 cells at 5 uM pretreated for 1 hr followed by radiotracer addition measured after 1 hr by scintillation spectrometric analysis relative to control; assay type: functional
L1210 [8] = test: Ratio of inhibition of [14C]-uridine incorporation into RNA in mouse L1210 cells to cellular uptake in mouse L1210 cells
L1210 [9] = test: Cellular uptake in mouse L1210 cells assessed per 10^6 cells at 3 uM up to 120 mins; assay type: ADME, cell-based; details: l1210, 2 h

| Drug uptake (L1210 [9]) [nmol] | SMILES | inhibition at 1 µM (L1210 [1]) [%] | inhibition at 1 µM (L1210 [2]) [%] | inhibition at 3 µM (L1210 [3]) [%] | inhibition at 3 µM (L1210 [4]) [%] | inhibition at 5 µM (L1210 [5]) [%] | Ratio (L1210 [6]) | inhibition at 5 µM (L1210 [7]) [%] | Ratio (L1210 [8]) |
| --- | --- | --- | --- | --- | --- | --- | --- | --- | --- |
| 0.19 | COc1cccc2c1C(=O)c1c(O)c3c(c(O)c1C2=O)C[C@@](O)(C(=O)CO)C[C@@H]3O[C@H]1C[C@H](N)[C@H](O)[C@H](C)O1 [DOXORUBICIN] | 22.5 | 28.9 | 34.5 | 50.8 | 56.9 | 152 | 52.2 | 121 |
| 0.31 | COc1cccc2c1C(=O)c1c(O)c3c(c(O)c1C2=O)C[C@@](O)(C(C)=O)C[C@@H]3O[C@H]1C[C@H](N)[C@H](O)[C@H](C)O1 [DAUNORUBICIN] | 47.6 | 37 | 68.8 | 69.8 | 74.8 | 119 | 83 | 155 |

Continued, compound first:

| SMILES | Drug uptake (L1210 [9]) [nmol] | inhibition at 1 µM (L1210 [1]) [%] | inhibition at 1 µM (L1210 [2]) [%] | inhibition at 3 µM (L1210 [3]) [%] | inhibition at 3 µM (L1210 [4]) [%] | inhibition at 5 µM (L1210 [5]) [%] | Ratio (L1210 [6]) | inhibition at 5 µM (L1210 [7]) [%] | Ratio (L1210 [8]) |
| --- | --- | --- | --- | --- | --- | --- | --- | --- | --- |
| COc1cccc2c1C(=O)c1c(O)c3c(c(O)c1C2=O)C[C@@](O)(C(C)O)C[C@@H]3O[C@H]1C[C@H](N)[C@H](O)[C@H](C)O1 (stereo not given in full) | 0.33 | 11.2 | 12.1 | 30.8 | 28.9 | 46.4 | 94 | 36.8 | 88 |
| COc1cccc2c1C(=O)c1c(O)c3c(c(O)c1C2=O)C[C@@](O)([C@@H](O)CO)C[C@@H]3O[C@H]1C[C@H](N)[C@H](O)[C@H](C)O1 | 0.16 | 10.1 | 23.7 | 25 | 17.9 | 22.4 | 200 | 32 | 137 |
| COc1cccc2c1C(=O)C1=C(C2=O)C(O)C2=C(C1O)[C@@H](C[C@@H]1C[C@H](N)[C@@H](O)[C@H](C)O1)C[C@@](O)(/C(C)=N/NC(=O)c1ccccc1)C2 (stereo not given in full) [RUBIDAZONE] | 0.2 | 11.6 | 12.7 | 27.2 | 36.8 | 58.2 | 65 | 41 | 60 |
